In US3957850A, “Phenylacetic acid derivatives” (priority 1971, dated 1976):
Where two headings read alike, the source gives them in different places.

Experiments:
[1] = Acute toxicity determination, oral LD50 by method of BEHRENS and KARBER; conditions: mouse, in vivo, female Swiss mice, 48 hours observation
Description: Acute toxicity tests were carried out with lots of 10 female mice of "Swiss" strain, weighing from 19 to 21 g.
The means lethal dose (LD50) by the oral route was determined by means of the method of BEHRENS and KARBER after keeping the animals under observation during 48 hours. In this table are also set forth the LD50 of acetylsalicylic acid and of indometacine used as reference materials.

[2] = system: peritoneal pain induced by injection of acetic acid; experiment: Analgesic activity: inhibition test of the peritoneal pain induced by injection of acetic acid (writhing); format: in vivo, mice; conditions: Mus musculus, read-out: % analgesia
Description: The analgesic activity was determined by the inhibition test of the peritoneal pain induced by injection of acetic acid.
The materials having an analgesic action reduce or eliminate this syndrome.
Lots of 10 mice are given orally the various test compounds, 30 minutes prior to injection of the challenging material. The writhing movements are counted during 15 minutes and the analgesic effect is expressed as percent decrease of the number of stretching movements with respect to the reference animals.
The same test was carried out with acetylsalicylic acid.

[3] = system: carragheenin-induced edema of the paws; experiment: Anti-inflammatory activity: test of the carragheenin-induced edema of the paws in rats; format: in vivo; conditions: Rattus norvegicus, 1 h, read-out: % inhibition of inflammation; for inhibition in vivo at 50 mg/kg: 50 mg/kg (about 1/36 of LD50); for inhibition in vivo at 67 mg/kg: 67 mg/kg (about 1/36 of LD50); for inhibition in vivo at 33 mg/kg: 33 mg/kg (about 1/36 of LD50)
Description: The anti-inflammatory activity was determined by means of the test of the carragheenin-induced edema of the pawsin rats.
Male rats weighing about 120 g are administered 0.1 ml of an 0.5% carragheenin suspension (plantar sub-aponeurotic injection) one hour after oral treatment with the various test compounds.
The volume of the rear paws is measured prior to injection of the inflammatory agent, and then 2, 3 and 4 hours after injection.
The difference between the volume of the paws of the treated animals and the volume of the paws of the reference animals evidences the anti-inflammatory action of the various test compounds.
The same test was carried out with indometacine.

[4] = male rats, oral, one hour before carragheenin
[5] = mice, oral, 30 minutes before acetic acid
[6] = male rats, oral, 81 mg/kg (about 1/36 of LD50), one hour before carragheenin

In the case of C=CCNc1ccc(C(C)C(=O)[O-])cc1.[Li+] (stereo not shown), the LD50 at 48 h [1] is reported as 2910 mg/kg.
In the case of C=CCNc1ccc(C(C)C(=O)O)cc1 (stereo not shown) [2-(p-allylaminophenyl)propionic acid, 2-(p-Allylaminophenyl)-propionic acid], the LD50 at 48 h [1] is reported as 1780 mg/kg, the inhibition in vivo at 20 mg/kg ([2]; mice, oral, 20 mg/kg, 30 minutes before acetic acid) is reported as 50% and the inhibition in vivo at 50 mg/kg [3, 4] is reported as 50%.
For CC(C(=O)O)c1ccc(NCc2ccccc2)cc1 (stereo not shown) [2-(p-benzylaminophenyl)propionic acid], the LD50 at 48 h [1] was 880 mg/kg, the inhibition in vivo at 10 mg/kg ([2]; mice, oral, 10 mg/kg, 30 minutes before acetic acid) was 47% and the inhibition in vivo at 25 mg/kg ([3]; male rats, oral, 25 mg/kg (about 1/36 of LD50), one hour before carragheenin) was 12%.
CCNc1ccc(C(C)C(=O)O)cc1 (stereo not shown) [2-(p-ethylaminophenyl)propionic acid, 2-(p-Ethylaminophenyl)propionic acid] showed an LD50 at 48 h [1] of 2400 mg/kg, an inhibition in vivo at 27 mg/kg [2, 5] of 44% and an inhibition in vivo at 67 mg/kg [3, 4] of 47%.
Work on CC(C)Nc1ccc(C(C)C(=O)O)cc1 (stereo not shown) [2-(p-isopropylaminophenyl)propionic acid, 2-(p-Isopropylaminophenyl)-propionic acid] yielded an LD50 at 48 h [1] of 2400 mg/kg, an inhibition in vivo at 27 mg/kg [2, 5] of 56% and an inhibition in vivo at 67 mg/kg [3, 4] of 44%.
For C=C(C)CNc1ccc(C(C)C(=O)O)cc1 (stereo not shown) [2-(p-methallylaminophenyl)propionic acid, 2-(p-Methallylaminophenyl)propionic acid], the LD50 at 48 h [1] was 2400 mg/kg, the inhibition in vivo at 7 mg/kg ([2]; mice, oral, 7 mg/kg, 30 minutes before acetic acid) was 58% and the inhibition in vivo at 67 mg/kg [3, 4] was 51%.
CNc1ccc(C(C)C(=O)O)cc1 (stereo not shown) [2-(p-methylaminophenyl)propionic acid, 2-(p-Methylaminophenyl)propionic acid] gave an LD50 at 48 h [1] greater than 3200 mg/kg, an inhibition in vivo at 36 mg/kg [2, 5] of 60% and an inhibition in vivo at 89 mg/kg ([3]; male rats, oral, 89 mg/kg (about 1/36 of LD50), one hour before carragheenin) of 44%.
Compound CCCCNc1ccc(C(C)C(=O)O)cc1 (stereo not shown) [2-(p-n-butylaminophenyl)propionic acid, 2-(p-n-Butylaminophenyl)propionic acid] has an LD50 at 48 h [1] of 1200 mg/kg, an inhibition in vivo at 13 mg/kg ([2]; mice, oral, 13 mg/kg, 30 minutes before acetic acid) of 50% and an inhibition in vivo at 33 mg/kg [3, 4] of 33%.
Compound CCCNc1ccc(C(C)C(=O)O)cc1 (stereo not shown) [2-(p-n-propylaminophenyl)-propionic acid, 2-(p-n-Propylaminophenyl)propionic acid] has an LD50 at 48 h [1] of 2400 mg/kg, an inhibition in vivo at 13.5 mg/kg [2, 5] of 61% and an inhibition in vivo at 67 mg/kg [3, 4] of 47%.
For C#CCNc1ccc(C(C)C(=O)O)cc1 (stereo not shown) [2-(p-propargylaminophenyl)propionic acid, 2-(p-Propargylaminophenyl)-propionic acid], the LD50 at 48 h [1] was 2400 mg/kg, the inhibition in vivo at 13.5 mg/kg [2, 5] was 55% and the inhibition in vivo at 67 mg/kg [3, 4] was 47%.
Compound C=C(C)CNc1ccc(C(C)C(=O)OC)cc1.Cl (stereo not shown) [Methyl 2-(p-methallylaminophenyl)-propionate hydrochloride] has an LD50 at 48 h [1] of 2400 mg/kg, an inhibition in vivo at 27 mg/kg [2, 5] of 49% and an inhibition in vivo at 67 mg/kg [3, 4] of 46%.
With CC(=O)Oc1ccccc1C(=O)O [acetylsalicylic acid, reference compound] the LD50 at 48 h [1] was 1500 mg/kg and the inhibition in vivo at 100 mg/kg ([2]; po) was 55%.
Work on C=CCNc1ccc(CC(=O)OCC)cc1 [ethyl p-allylaminophenylacetate, Ethyl para-allylaminophenylacetate] yielded an LD50 at 48 h [1] of 2400 mg/kg, an inhibition in vivo at 67 mg/kg [2, 5] of 41% and an inhibition in vivo at 67 mg/kg [3, 4] of 39%.
C=C(C)CNc1ccc(CC(=O)OCC)cc1 [ethyl p-methallylaminophenylacetate, Ethyl p-methallylaminophenylacetate] gave an LD50 at 48 h [1] of 2400 mg/kg, an inhibition in vivo at 67 mg/kg [2, 5] of 51% and an inhibition in vivo at 67 mg/kg [3, 4] of 38%.
COc1ccc2c(c1)c(CC(=O)O)c(C)n2C(=O)c1ccc(Cl)cc1 [indometacine, reference compound] gave an LD50 at 48 h [1] of 50 mg/kg and an inhibition in vivo at 5 mg/kg ([3]; po) of 37%.
For C=CCNc1ccc(C(C)C(=O)[O-])cc1.[Li+] (stereo not shown) [lithium salt], the inhibition in vivo at 81 mg/kg ([2]; po) was 28% and the inhibition in vivo at 81 mg/kg ([3]; po) was 59%.
For C=CCNc1ccc(C(C)C(=O)OC)cc1 (stereo not shown) [methyl 2-(p-allylaminophenyl)propionate, Methyl 2-(p-allylaminophenyl)-propionate], the LD50 at 48 h [1] was 1600 mg/kg, the inhibition in vivo at 25 mg/kg ([2]; mice, oral, 25 mg/kg, 30 minutes before acetic acid) was 57% and the inhibition in vivo at 50 mg/kg [3, 4] was 35%.
C=CCNc1ccc(CC(=O)O)cc1 [p-allylaminophenylacetic acid, p-Allylaminophenylacetic acid] gave an LD50 at 48 h [1] of 1550 mg/kg, an inhibition in vivo at 100 mg/kg ([2]; mice, oral, 100 mg/kg, 30 minutes before acetic acid) of 51% and an inhibition in vivo at 45 mg/kg ([3]; male rats, oral, 45 mg/kg (about 1/36 of LD50), one hour before carragheenin) of 32%.
Compound O=C(O)Cc1ccc(NCc2ccccc2)cc1 [p-benzylaminophenylacetic acid, p-Benzylaminophenylacetic acid] has an LD50 at 48 h [1] of 2400 mg/kg, an inhibition in vivo at 67 mg/kg [2, 5] of 33% and an inhibition in vivo at 67 mg/kg [3, 4] of 26%.
CCNc1ccc(CC(=O)O)cc1 [p-ethylaminophenylacetic acid, p-Ethylaminophenylacetic acid] showed an LD50 at 48 h [1] of 2910 mg/kg, an inhibition in vivo at 16 mg/kg ([2]; mice, oral, 16 mg/kg, 30 minutes before acetic acid) of 37.5% and an inhibition in vivo at 81 mg/kg [3, 6] of 23%.
CC(C)Nc1ccc(CC(=O)O)cc1 [p-isopropylaminophenylacetic acid, p-Isopropylaminophenylacetic acid] gave an LD50 at 48 h [1] of 2400 mg/kg, an inhibition in vivo at 13.5 mg/kg [2, 5] of 42% and an inhibition in vivo at 67 mg/kg [3, 4] of 42%.
For C=C(C)CNc1ccc(CC(=O)O)cc1 [p-methallylaminophenylacetic acid, p-Methallylaminophenylacetic acid], the LD50 at 48 h [1] was 1780 mg/kg, the inhibition in vivo at 49 mg/kg ([2]; mice, oral, 49 mg/kg, 30 minutes before acetic acid) was 32% and the inhibition in vivo at 49 mg/kg ([3]; male rats, oral, 49 mg/kg (about 1/36 of LD50), one hour before carragheenin) was 25%.
Compound CCCCNc1ccc(CC(=O)O)cc1 [p-n-butylaminophenylacetic acid, p-n-Butylaminophenylacetic acid] has an LD50 at 48 h [1] of 1200 mg/kg, an inhibition in vivo at 33 mg/kg ([2]; mice, oral, 33 mg/kg, 30 minutes before acetic acid) of 51% and an inhibition in vivo at 33 mg/kg [3, 4] of 21%.
CCCNc1ccc(CC(=O)O)cc1 [p-n-propylaminophenylacetic acid, p-n-Propylaminophenylacetic acid] gave an LD50 at 48 h [1] of 2400 mg/kg, an inhibition in vivo at 27 mg/kg [2, 5] of 49% and an inhibition in vivo at 67 mg/kg [3, 4] of 38%.
With C#CCNc1ccc(CC(=O)O)cc1 [p-propargylaminophenylacetic acid] the LD50 at 48 h [1] was 2910 mg/kg, the inhibition in vivo at 36 mg/kg [2, 5] was 51% and the inhibition in vivo at 81 mg/kg [3, 6] was 18%.
